Data reported in patent publication US9527807B2, “Sulfonamide derivative and use thereof” (Takeda Pharmaceutical Company Limited, priority 2011, dated 2016).

molecular target: T1, AMPA receptor (human GluR1 flip/stargazin expressed in CHO-K1 cells) (Homo sapiens, UniProt P42261); assay: AMPA receptor function enhancing activity using calcium influx as index; format: cell-based; conditions: change in fluorescence level in 3 min, 100% = 3 mM glutamic acid + 300 μM cyclothiazide, 0% = 3 mM glutamic acid only
T1 construct: expressed in transfected cells; host or cells: CHO-K1
From the text: Human GluR1 flip cDNA was amplified by PCR using forward primer […] (SEQ ID NO: 1) and reverse primer […] (SEQ ID NO: 2) artificially synthesized using human brain-derived cDNA (BD Bio science) as a template. The amplified product was digested with restriction enzymes EcoRI, NotI (TAKARA SHUZO CO. LTD.), and incorporated into the same site of pcDNA3.1(+) (Invitrogen) to construct pcDNA3.1(+)/human GluR1 flip gene. Human stargazin cDNA was amplified by PCR using forward primer […] (SEQ ID NO: 3) and reverse primer. […] (SEQ ID NO: 4) artificially synthesized using human hippocampus cDNA as a template. The amplified product was digested with restriction enzymes XhoI, BamHI (TAKARA SHUZO CO. LTD.), and incorporated into the same site of pcDNA3.1(−) (Invitrogen) to construct pcDNA3.1 Zeo(−)/human stargazin gene.
(2) Construction of GluR1 Flip/Stargazin Expressing Cell
CHO-K1 cells passaged in a culture medium (Ham's F12 medium (Invitrogen) added with 10% inactivated fetal bovine serum (Morgate) and penicillin, streptomycin (Invitrogen)) were detached with 0.05% trypsin, 0.53 mM EDTA (Invitrogen) diluted with D-PBS(−). The detached cells were suspended in a culture medium, and recovered by a centrifugation operation at 1,000 rpm. The recovered cells were suspended again in D-PBS(−), and added to a 0.4 cm electroporation cuvette (BioRad). pcDNA3.1(+)/human GluR1 flip gene (5 μg) and pcDNA3.1 Zeo(−)/human stargazin gene (15 μg) were added, and the mixture was introduced into CHO-K1 cells using Gene Pulser II (BioRad) under the conditions of 950 μFd, […]. The introduced cells were cultured overnight in a culture medium and, the next day, plated in a 96 well plate at 250 cells/well using a selection medium (culture medium added with Zeocin (Invitrogen) to 250 μg/mL). Clones showing drug resistance were selected, and GluR1 flip/stargazin expressing clones were selected by an assay method using calcium influx as an index as shown below.
(3) Measurement Method of AMPA Receptor Function Enhancing Activity of Compound Using Calcium Influx as Index
CHO-K1/GluR1 flip/stargazin expressing cells were plated on a 384 well black transparent bottom plate (FMAT4307723) at 0.5×10^4 cells/well, and cultured in a 37° C., CO2 incubator (SANYO Electric Co., Ltd.) for 2 days. The medium in the cell plate was removed, and a calcium indicator (Calcium 4 Assay Kit, Molecular. Devices) containing 1.25 mM probenecid (Invitrogen) was added at 25 μL/well and the well was left standing in 37° C., CO2 incubator for 1 hr. The cell plate was set in FLITRtetra (Molecular Devices), a mixture (12.5 μL) of 9 mM glutamic acid diluted with assay buffer B (HBSS (Invitrogen), 0.1% BSA, 10 mM HEPES) and a test compound was added, and the amount of change in fluorescence level in 3 min was measured. In the definition here, the amount of change in fluorescence level of well added with glutamic acid at final concentration 3 mM and 300 μM cyclothiazide (TOCRIS) is 100%, the amount of change in fluorescence level of well added only with glutamic acid at final concentration 3 mM is 0%, and the compound activity was calculated according to the following formula. activity (%)=(X−C)/(T−C)×100 T: amount of change in fluorescence level of well added with glutamic acid at final concentration 3 mM and 300 μM cyclothiazide C: amount of change in fluorescence level of well added only with glutamic acid at final concentration 3 mM X: amount of change in fluorescence level of well added with to test compound

T1 sequence (P42261 19-906 isoform P42261-2 limits assumed): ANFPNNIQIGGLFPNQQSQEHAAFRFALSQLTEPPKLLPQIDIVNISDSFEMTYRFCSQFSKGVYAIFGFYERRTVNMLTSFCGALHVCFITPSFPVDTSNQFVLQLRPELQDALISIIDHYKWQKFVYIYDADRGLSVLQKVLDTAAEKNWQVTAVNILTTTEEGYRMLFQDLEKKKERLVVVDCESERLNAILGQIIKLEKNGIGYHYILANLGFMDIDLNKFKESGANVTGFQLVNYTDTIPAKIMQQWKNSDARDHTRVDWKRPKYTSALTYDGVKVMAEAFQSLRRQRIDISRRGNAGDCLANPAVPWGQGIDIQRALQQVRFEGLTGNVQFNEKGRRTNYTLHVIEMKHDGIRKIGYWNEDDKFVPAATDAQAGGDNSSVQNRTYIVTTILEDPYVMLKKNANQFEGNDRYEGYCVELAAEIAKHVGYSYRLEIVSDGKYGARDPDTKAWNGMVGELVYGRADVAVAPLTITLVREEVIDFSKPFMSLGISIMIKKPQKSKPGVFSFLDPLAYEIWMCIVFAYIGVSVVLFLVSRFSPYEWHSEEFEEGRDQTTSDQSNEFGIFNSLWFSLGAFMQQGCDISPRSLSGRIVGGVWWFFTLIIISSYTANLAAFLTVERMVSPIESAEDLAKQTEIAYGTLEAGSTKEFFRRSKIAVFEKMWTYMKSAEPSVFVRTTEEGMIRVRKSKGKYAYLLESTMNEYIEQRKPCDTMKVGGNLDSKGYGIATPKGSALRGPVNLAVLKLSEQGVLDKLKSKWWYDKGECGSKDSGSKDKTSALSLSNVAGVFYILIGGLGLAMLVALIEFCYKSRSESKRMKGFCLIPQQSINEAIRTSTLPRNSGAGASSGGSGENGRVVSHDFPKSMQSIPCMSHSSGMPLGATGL
T1 sequence (Q9Y698 whole entry partner): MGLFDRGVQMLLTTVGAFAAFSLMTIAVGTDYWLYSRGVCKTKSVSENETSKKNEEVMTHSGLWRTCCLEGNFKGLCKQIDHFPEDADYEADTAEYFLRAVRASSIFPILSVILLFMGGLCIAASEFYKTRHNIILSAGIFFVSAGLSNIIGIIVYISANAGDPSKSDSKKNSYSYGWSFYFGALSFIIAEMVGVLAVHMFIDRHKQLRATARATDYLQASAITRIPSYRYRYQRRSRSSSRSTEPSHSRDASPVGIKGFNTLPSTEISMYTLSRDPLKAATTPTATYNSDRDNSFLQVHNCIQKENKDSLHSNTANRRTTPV

activity (%) | Compound
38% | CS(=O)(=O)N[C@H]1C[C@H]2CC[C@H](O2)[C@@H]1COc1ccc(-c2ccc(C#N)cn2)cc1 (mixture of isomers) [Example 508, N-((1S,2SR,3SR,5R)-2-((4-(5-cyanopyridin-2-yl)phenoxy)methyl)-8-oxabicyclo[3.2.1]oct-3-yl)methanesulfonamide]
86% | CCS(=O)(=O)N[C@H]1CCCO[C@@H]1COc1ccc(C2CC2)cc1 (racemic) [Example 4, 1,5-anhydro-6-O-(4-cyclopropylphenyl)-2,3,4-trideoxy-4-[(ethylsulfonyl)amino]-DL-erythrohexitol]
78% | CS(=O)(=O)N[C@H]1CCCO[C@@H]1COc1ccc(C2CC2)cc1 (racemic) [Example 5, 1,5-anhydro-6-O-(4-cyclopropylphenyl)-2,3,4-trideoxy-4-[(methylsulfonyl)amino]-DL-erythrohexitol]
76% | CS(=O)(=O)N[C@H]1CCCO[C@@H]1COc1ccc(-c2ccc(C#N)cn2)cc1 (racemic) [Example 164, 1,5-anhydro-6-O-[4-(5-cyanopyridin-2-yl)phenyl]-2,3,4-trideoxy-4-[(methylsulfonyl)amino]-DL-erythro-hexitol]
77% | CCS(=O)(=O)N[C@H]1CCCO[C@@H]1COc1ccc(-c2ncc(C)s2)cc1 (racemic) [Example 181, 1,5-anhydro-2,3,4-trideoxy-4-[(ethylsulfonyl)amino]-6-O-[4-(5-methyl-1,3-thiazol-2-yl)phenyl]-DL-erythro-hexitol]
74% | Cc1cnc(-c2ccc(OC[C@H]3OCCC[C@@H]3NS(=O)(=O)C3CC3)cc2)s1 (racemic) [Example 192, 1,5-anhydro-4-[(cyclopropylsulfonyl)amino]-2,3,4-trideoxy-6-O-[4-(5-methyl-1,3-thiazol-2-yl)phenyl]-DL-erythro-hexitol]
96% | O=S(=O)(N[C@H]1CCOC[C@@H]1COc1ccc(-c2ccc(F)cn2)c(F)c1)C1CC1 (racemic) [Example 243, N-[(3RS,4SR)-3-{[3-fluoro-4-(5-fluoropyridin-2-yl)phenoxy]methyl}tetrahydro-2H-pyran-4-yl]cyclopropanesulfonamide]
96% | CS(=O)(=O)N[C@H]1CCOC[C@@H]1COc1ccc(-c2ccc(Cl)cn2)c(F)c1 (racemic) [Example 244, N-[(3RS,4SR)-3-{[4-(5-chloropyridin-2-yl)-3-fluorophenoxy]methyl}tetrahydro-2H-pyran-4-yl]methanesulfonamide]
82% | CS(=O)(=O)N[C@H]1CCC(F)(F)C[C@@H]1COc1ccc(-c2ccc(C#N)cn2)cc1 (racemic) [Example 260, N-[(1SR,2SR)-2-{[4-(5-cyanopyridin-2-yl)phenoxy]methyl}-4,4-difluorocyclohexyl]methanesulfonamide]
92% | CCS(=O)(=O)N[C@H]1CCOC[C@@H]1COc1ccc(-c2ncc(Cl)s2)cc1 (racemic) [Example 261, N-[(3RS,4SR)-3-{[4-(5-chloro-1,3-thiazol-2-yl)phenoxy]methyl}tetrahydro-2H-pyran-4-yl]ethanesulfonamide]
89% | O=S(=O)(N[C@H]1CCOC[C@@H]1COc1ccc(-c2ncc(Cl)cc2F)cc1)C1CC1 (racemic) [Example 262, N-[(3RS,4SR)-3-{[4-(5-chloro-3-fluoropyridin-2-yl)phenoxy]methyl}tetrahydro-2H-pyran-4-yl]cyclopropanesulfonamide]
66% | Cc1nc(-c2ccc(OC[C@H]3COCC[C@@H]3NS(C)(=O)=O)cc2)cs1 (racemic) [Example 263, N-[(3RS,4SR)-3-{[4-(2-methyl-1,3-thiazol-4-yl)phenoxy]methyl}tetrahydro-2H-pyran-4-yl]methanesulfonamide]
74% | CS(=O)(=O)N[C@H]1CCOC[C@@H]1COc1ccc(-n2cc(Cl)cn2)cc1 (racemic) [Example 270, N-[(3RS,4SR)-3-{[4-(4-chloro-1H-pyrazol-1-yl)phenoxy]methyl}tetrahydro-2H-pyran-4-yl]methanesulfonamide]
79% | CN(C)S(=O)(=O)N[C@H]1CCOC[C@@H]1COc1ccc(-n2cc(Cl)cn2)cc1 (racemic) [Example 279, N′-[(3RS,4SR)-3-{[4-(4-chloro-1H-pyrazol-1-yl)phenoxy]methyl}tetrahydro-2H-pyran-4-yl]-N,N-dimethylsulfamide]
108% | Cc1cnn(-c2ccc(OC[C@H]3COCC[C@@H]3NS(=O)(=O)C(F)(F)F)cc2)c1 (racemic) [Example 280, 1,1,1-trifluoro-N-[(3RS,4SR)-3-{[4-(4-methyl-1H-pyrazol-1-yl)phenoxy]methyl}tetrahydro-2H-pyran-4-yl]methanesulfonamide]
64% | Cc1cc(-c2ccc(OC[C@H]3COCC[C@@H]3NS(C)(=O)=O)cc2)nn1C (racemic) [Example 281, N-[(3RS,4SR)-3-{[4-(1,5-dimethyl-1H-pyrazol-3-yl)phenoxy]methyl}tetrahydro-2H-pyran-4-yl]methanesulfonamide]
91% | CCS(=O)(=O)N[C@H]1CCOC[C@@H]1COc1ccc(-c2cccnc2C)cc1 (racemic) [Example 322, N-[(3RS,4SR)-3-{[4-(2-methylpyridin-3-yl)phenoxy]methyl}tetrahydro-2H-pyran-4-yl]ethanesulfonamide]
93% | Cc1cnc(-c2ccc(OC[C@H]3COCC[C@@H]3NS(C)(=O)=O)cc2)s1 (racemic) [Example 333, N-[(3RS,4SR)-3-{[4-(5-methyl-1,3-thiazol-2-yl)phenoxy]methyl}tetrahydro-2H-pyran-4-yl]methanesulfonamide]
70% | CCS(=O)(=O)N[C@H]1CCOC[C@@H]1COc1ccc(-c2ccc(C(F)(F)F)cn2)cc1 (racemic) [Example 351, N-[(3RS,4SR)-3-({4-[5-(trifluoromethyl)pyridin-2-yl]phenoxy}methyl)tetrahydro-2H-pyran-4-yl]ethanesulfonamide rac]
96% | O=S(=O)(N[C@H]1CCOC[C@@H]1COc1ccc(-c2ncc(F)cc2F)cc1)C1CC1 (racemic) [Example 362, N-[(3RS,4SR)-3-{[4-(3,5-difluoropyridin-2-yl)phenoxy]methyl}tetrahydro-2H-pyran-4-yl]cyclopropanesulfonamide]
66% | CCS(=O)(=O)N[C@H]1CCOC[C@@H]1COc1ccc(-n2nccc2C)cc1 (racemic) [Example 431, N-[(3RS,4SR)-3-{[4-(5-methyl-1H-pyrazol-1-yl)phenoxy]methyl}tetrahydro-2H-pyran-4-yl]ethanesulfonamide]
99% | CCS(=O)(=O)N[C@H]1CCOC[C@@H]1COc1ccc(-n2cc(Cl)cn2)c(F)c1 (racemic) [Example 489, N-[(3RS,4SR)-3-{[4-(4-chloro-1H-pyrazol-1-yl)-3-fluorophenoxy]methyl}tetrahydro-2H-pyran-4-yl]ethanesulfonamide]
46% | CCS(=O)(=O)N[C@H]1CCN(C(C)=O)C[C@@H]1COc1ccc(OC(F)F)cc1 (relative stereo) [Example 1, trans-N-[1-acetyl-3-{[4-(difluoromethoxy)phenoxy]methyl}piperidin-4-yl]ethanesulfonamide]
38% | CCS(=O)(=O)N[C@H]1CCN(C(C)=O)C[C@@H]1COc1ccc(CCC#N)cc1 (relative stereo) [Example 2, trans-N-[1-acetyl-3-{[4-(2-cyanoethyl)phenoxy]methyl}piperidin-4-yl]ethanesulfonamide]
